Values of other authors in patent US12465589B2, “Method and composition for treating CNS disorders” (IGC Pharma IP, LLC, priority 2018, dated 2025).

Key:
[1] = literature reports
[2] = test system: acetylcholinesterase (AChE); settings: THC 50 micromolar
Aβ protein = Aβ protein (Homo sapiens, UniProt P05067); settings: in vitro
AD patients = settings: supplementation

Sequence of Aβ protein (P05067 672-713 limits assumed): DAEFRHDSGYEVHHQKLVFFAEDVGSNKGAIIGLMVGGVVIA

Q: What does the source list for `CCCCCc1cc(O)c2c(c1)OC(C)(C)[C@@H]1CCC(C)=C[C@@H]21` [THC, Δ9-tetrahydrocannabinol]?
A: side effects of ingestion [1]: acute psychotic reactions, anxiety, impaired neuropsychological performance, impaired memory, executive functioning disorder, mitochondrial dysfunction, neuron apoptosis; AChE-induced amyloid β-peptide (Aβ) aggregation [2]: prevents; inhibition of acetylcholinesterase (AChE) [2]: competitively inhibits

Q: Which “aggregation of Aβ” value (Aβ protein) does the source give for `COc1cc(/C=C/C(=O)CC(=O)/C=C/c2ccc(O)c(OC)c2)ccc1O` [curcumin] here?
A: The value was “prevent the aggregation of Aβ”.

Q: And the “binding to Aβ protein” value (Aβ protein)?
A: The value was “bind to Aβ protein”.

Q: With `COc1ccc2[nH]cc(CCNC(C)=O)c2c1` [melatonin, N-acetyl-5-methoxytryptamine] as the compound, how does the circadian rhythmicity (AD patients) read?
A: The circadian rhythmicity was “improve circadian rhythmicity”.

Q: And the memory (AD patients)?
A: Its memory is “beneficial effects on memory”.
